Data reported in patent US8163894B2, “DNA for eukaryotic expression of CymR” (National Research Council of Canada, priority 2001, dated 2012).
Where two headings read alike, the source gives them in different places.

Key:
[1] = system: CymR-mediated expression (P2-cymlacZ fusion system); assay: Induction of expression in the P2-cymlacZ fusion system by candidate effectors; type: cell-based, Pseudomonas putida
From the text: The need to solubilize p-cumate (p-cumic acid) in organic solvent (e.g. ethanol or dimethyl formamide) is a great disadvantage. The present invention thus provides water-soluble effectors as well as possibly expanding the spectrum of inducers beyond p-cumate. At first, cumic alcohol, 4-methyl benzylalcohol, ethyltoluene, indole-2-carboxylic acid, indole-3-carboxylic acid, benzoic acid, 3- and 4-hydroxybenzoic acids, 3,4-dihyroxybenzoic acid and 2,4-dihydrobenzoic acid were tried. […] In this P2-cymlacZ fusion system, the threshold cumate concentration for induction is in the order of 0.002 millimolar (mM).
The sodium salt of cumic acid was also tested vs cumic acid (taken as cumate).
Both sodium benzoate and sodium toluate are ineffective.

[2] = system: 293 CuO-GFP clone 13; assay: Testing of cumate analogues as effector molecule (FIG. 16); type: cell-based
From the text: Of course cumate can be substituted for various cumate analogues also referred to as effector molecule as described before.
The Deposits were received by the authority on Apr. 10, 2002, and were given accession number IDA-100402-1 and IDA-100402-2, respectively. 293 CuO-GFP clone 13 was also deposited on Apr. 10, 2002 in the same IDA and was given accession number IDA-100401-3.

[3] = system: cumate activator (rAd vectors); assay: Co-infection with recombinant adenoviral reporter and activator viruses
[4] = system: mammalian cells; assay: Effect of cumate on morphology, growth and toxicity in mammalian cells; type: cell-based
[5] = system: 293-CuO-GFPq13# cells; assay: GFP expression from stably integrated pAdCMV5-CuO-GFPq in 293-CuO-GFPq13#; type: cell-based
Experimental: 1×10^6 293-CymR clone 21 were transfected with 10 μg of pAdCMV5-CuO-GFPq. GFP expression was induced by the addition of 200 μg/ml cumate and individual GFP positive cells were picked by Quixell™ (Caron, A. W., et al., Methods in cell science 22: 137-145, 2000).
293-CuO-GFPq13# were cultured in the presence and absence of cumate for 48 h. Photographs were taken using an inverted fluorescence microscope (Leica, Wetzlar, Germany). […] In the OFF state (FIG. 15B) only two GFP-positive cells are visible in the microscopic field.
Total GFP fluorescence was measured in the ON (9255) and OFF (3.75) states using an EPICS-XL flow cytometer (Coulter). The ON/OFF ratio for this clone was […].

[6] = system: 293-CymR clones; assay: Infection of 293-CymR clones with AdCMV5-Og-LacZ, β-galactosidase activity; type: cell-based; conditions: 200 μg/ml cumate
Experimental: 1×10^6 293 cells were transfected with 10 μg of pCymR/tk-neo by the calcium phosphate technique. 400 μg/ml G418 was added to the growth medium 48 h after transfection to select a pool of G418-resistant cells. Individual clones (293-CymR) were isolated from this pool by the method of limiting dilution.
293CymR clones were infected with AdCMV5-Og-LacZ in the presence and absence of 200 μg/ml cumate. β-galactosidase activity was measured 48 h post-infection.

[7] = biological target: CymR-VP16 transactivator in HeLa cells (Pseudomonas putida, UniProt O33453); assay: Cumate switch strategy 1: transient co-transfection, β-gal, HeLa cells; type: cell-based
Experimental: Transient transfections in 293 and HeLa cells were carried out using the calcium phosphate technique. One (1) ml of DNA-calcium phosphate precipitate contained 5 μg reporter, 250 ng activator/repressor (unless mentioned otherwise) and 3 μg seap in a total of 10 μg DNA. This was divided equally between two 60 mm plates, each containing 10^6 293 cells. One of the two plates received in addition 200 μg/ml cumate. Transient transfections in BMAD78-42 were carried out using Geneporter™ according to manufacturers directions. Briefly, 3 μg DNA (2 μg reporter, 25 ng transactivator and 0.5 μg seap) in 500 μl DMEM was added to 6×10^5 BMAd78-42 cells in DMEM. After 3 h 1 ml DMEM supplemented with 20% serum was added to the plates. […]
Measurement of Seap and β-gal activity Seap activity was measured in 50 μl of cell culture medium by adding 50 μl of 2× seap buffer (1M diethanolamine PH 9.8, 2 mM MgCl2, 10 mM 1-homoarginine and 20 mM p-nitrophenyl phosphate, disodium, hexahydrate Sigma 104 phosphatase substrate) and incubating at room temperature. OD405 was read using a plate reader at different intervals. This information was used to ensure that the enzyme activity was measured under conditions where the substrate was in excess. β-galactosidase activity was measured in transfected cell extracts. […] OD420 was measured at regular intervals until the reaction appeared to plateau. […]

[8] = system: 293-CymR clone 21; type: cell-based; conditions: 200 μg/ml cumate, 48 h post-transfection
[9] = biological target: CymR-VP16 transactivator in BMAdE1/78-42 cells (Pseudomonas putida, UniProt O33453); type: cell-based
Experimental: Measurement of Seap and β-gal activity Seap activity was measured in 50 μl of cell culture medium by adding 50 μl of 2× seap buffer (1M diethanolamine PH 9.8, 2 mM MgCl2, 10 mM 1-homoarginine and 20 mM p-nitrophenyl phosphate, disodium, hexahydrate Sigma 104 phosphatase substrate) and incubating at room temperature. OD405 was read using a plate reader at different intervals. This information was used to ensure that the enzyme activity was measured under conditions where the substrate was in excess. β-galactosidase activity was measured in transfected cell extracts. Cells were lysed 48 h post-transfection by three freeze-thaw cycles in 0.25M Tris.Hcl pH8. The cell lysate was centrifuged at 14,000×g and enzyme (β-galactosidase) activity was measured in the supernatant (cell extract) using a colorimetric assay containing 1 mM MgCl2, 0.9 mg/ml ONPG, and 66 mM sodium phosphate (pH 7.5). […] OD420 was measured at regular intervals until the reaction appeared to plateau. […]

[10] = system: CHO-cTA clones (cumate transactivator); assay: Adenoviral infection of CHO-cTA clones, total GFP fluorescence by flow cytometry; type: cell-based
Experimental: 1×10^6 CHO cells were transfected with 5 μg of pMPG-cTA-tk-neo-nls using 12 μl of LIPOFECTAMINE 2000 according to the instructions of the manufacturer. 1200 μg/ml G418 was added to the growth medium 48 h after transfection to select a pool of G418-resistant cells. Individual clones (CHO-cTA) were isolated from this pool by the method of limiting dilution.
CHO-cTA clones were infected with AdCMV5GFPq or AdCR5GFPq at MOIs of 100, 300 and 900 in the presence or absence of 200 μg/ml cumate. Forty-eight hours post-infection, cells were fixed in 2% paraformaldehyde in PBS. Total GFP fluorescence of the infected population was measured using an EPICS-XL flow cytometer (Coulter).

[11] = biological target: CymR-VP16 transactivator in 293 cells (Pseudomonas putida, UniProt O33453); type: cell-based
Experimental: Transient transfections in 293 and HeLa cells were carried out using the calcium phosphate technique. One (1) ml of DNA-calcium phosphate precipitate contained 5 μg reporter, 250 ng activator/repressor (unless mentioned otherwise) and 3 μg seap in a total of 10 μg DNA. This was divided equally between two 60 mm plates, each containing 10^6 293 cells. One of the two plates received in addition 200 μg/ml cumate. Transient transfections in BMAD78-42 were carried out using Geneporter™ according to manufacturers directions. Briefly, 3 μg DNA (2 μg reporter, 25 ng transactivator and 0.5 μg seap) in 500 μl DMEM was added to 6×10^5 BMAd78-42 cells in DMEM. After 3 h 1 ml DMEM supplemented with 20% serum was added to the plates. Half the samples received DMEM supplemented with 20% serum and 400 μg/ml cumate.
Measurement of Seap and β-gal activity Seap activity was measured in 50 μl of cell culture medium by adding 50 μl of 2× seap buffer (1M diethanolamine PH 9.8, 2 mM MgCl2, 10 mM 1-homoarginine and 20 mM p-nitrophenyl phosphate, disodium, hexahydrate Sigma 104 phosphatase substrate) and incubating at room temperature. OD405 was read using a plate reader at different intervals. This information was used to ensure that the enzyme activity was measured under conditions where the substrate was in excess. β-galactosidase activity was measured in transfected cell extracts. Cells were lysed 48 h post-transfection by three freeze-thaw cycles in 0.25M Tris.Hcl pH8. The cell lysate was centrifuged at 14,000×g and enzyme (β-galactosidase) activity was measured in the supernatant (cell extract) using a colorimetric assay containing 1 mM MgCl2, 0.9 mg/ml ONPG, and 66 mM sodium phosphate (pH 7.5). Reactions were incubated at 37° C. until a faint yellow color had developed. OD420 was measured at regular intervals until the reaction appeared to plateau. To measure low level activity (basal activity in the absence of transactivation) a chemiluminescent substrate was used. The reaction was performed using a kit from Roche diagnostics according to the instructions of the manufacturer.
To test the system, reporter and activator constructs as described in Example I above, were co-transfected into 293 cells by the calcium-phosphate technique. A plasmid carrying the secreted alkaline phosphatase coding sequence under the control of a constitutive promoter was included in all transfections and seap activity in the cell culture medium was used to normalize for transfection efficiency.

[12] = system: 293-CymR cells; type: cell-based; conditions: 293-CymR infected with rAd expressing VSVg
[13] = biological target: T1, CymR repressor in 293 cells (Pseudomonas putida, UniProt O33453); assay: Strategy 2: CymR-mediated repression of CMV5-operator LacZ reporters, transient transfection in 293 cells; type: cell-based
T1 construct: expressed in transfected cells; host or cells: 293 cells

[14] = Water solubility of effectors; type: physicochemical

T1 sequence (O33453 whole entry): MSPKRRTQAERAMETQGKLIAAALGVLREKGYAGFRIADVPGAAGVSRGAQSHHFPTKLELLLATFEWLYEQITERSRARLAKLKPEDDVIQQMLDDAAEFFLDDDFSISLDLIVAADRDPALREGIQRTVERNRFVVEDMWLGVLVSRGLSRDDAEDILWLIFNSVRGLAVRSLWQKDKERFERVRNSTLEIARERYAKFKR
Sequence of CymR-VP16 transactivator in 293 cells (O33453 whole entry, added parts left off): as the sequence (O33453 whole entry) above
Sequence of CymR-VP16 transactivator in HeLa cells (O33453 whole entry, added parts left off): as the sequence (O33453 whole entry) above
Sequence of CymR-VP16 transactivator in BMAdE1/78-42 cells (O33453 whole entry, added parts left off): as the sequence (O33453 whole entry) above

## O=C(O)c1ccc(O)c(O)c1 [3,4-dihyroxybenzoic acid]
[1]
  ability to act as inducer: none of these compounds could act as effective inducers

## O=C(O)c1cccc(O)c1 [3-hydroxybenzoic acid, 3- and 4-hydroxybenzoic acids]
[1]
  ability to act as inducer: none of these compounds could act as effective inducers

## Cc1ccc(CO)cc1 [4-methyl benzylalcohol]
[1]
  ability to act as inducer: none of these compounds could act as effective inducers

## CCCc1ccc(C(=O)O)cc1 [C4, p-Propylbenzoic acid]
[2]
  activity as activator (effector molecule): good activators

## CC(C)Cc1ccc(C(=O)O)cc1 [C6, p-isobutylbenzoic acid]
[2]
  activity as activator (effector molecule): good activators

## CN(C)c1ccc(C(=O)O)cc1 [C11, p-N-dimethylaminobenzoic acid]
[2]
  activity as activator (effector molecule): good activators

## CCNc1ccc(C(=O)O)cc1 [C13, p-N-ethylaminobenzoic acid]
[2]
  activity as activator (effector molecule): good activators

## CN(C)c1ccc(C(=O)O)cc1 [DM PABA, Di-methyl p-aminobenzoic acid]
[1]; 0.02 mM
  ability to act as inducer: effective inducers
[1]; 0.1 mM
  ability to act as inducer: just as good an inducer as parent cumate

## CCc1ccc(C(=O)[O-])cc1.[Na+] [Na^+ 4-ethylbenzoate]
[1]
  ability to act as inducer: acts as an inducer
  response compared with parental cumate: not as good as the parental cumate

## O=C(O)c1ccccc1 [benzoic acid, Benzoic acid]
[1]
  ability to act as inducer: none of these compounds could act as effective inducers

## CC(C)c1ccc(C(=O)O)cc1 [cumate, cumic acid]
[3]; reporter moi 10, activator moi 0.1
  share of the increase obliterated by addition of cumate: 95%
[3]; reporter moi 10, activator moi 1
  share of the increase obliterated by addition of cumate: 98%
[4]; 200 μg/ml cumate in media, 4 weeks
  effects on morphology or growth rates: No visible effects
[4]; concentrations that effectively regulate gene expression
  toxicity to mammalian cells: does not appear to be toxic
[5]; 48 h culture
  cells positive for GFP expression in the presence of cumate: 100%
[5]; clone 293-CuO-GFPq13#
  ON/OFF ratio of total GFP fluorescence: 246
[5]; with cumate, flow cytometer
  Total GFP fluorescence, ON state: 9255
[1]; P2-cymlacZ fusion system
  threshold cumate concentration for induction: ~0.002 mM
[2]
  activity as activator (effector molecule): good activators
[6]; 293-CymR clone 21, AdCMV5-Og-LacZ
  ON/OFF ratio (β-gal with vs without cumate): 19
[6]; 293-CymR clone 22, AdCMV5-Og-LacZ
  ON/OFF ratio (β-gal with vs without cumate): 16
[6]; 293-CymR clone 23, AdCMV5-Og-LacZ
  ON/OFF ratio (β-gal with vs without cumate): 7.6
[7]; pAdcTA1(+nls)
  decrease in activation by the transactivator on addition of cumate: 9.4 fold
[7]; pAdcTA1(−nls)
  reduction in activation on addition of cumate: 34 fold
[8]
  VSVg expression on addition of cumate (western): clearly evident
[9]; BMAdE1/78-42, pAdcTA1(+nls)
  reduction of activation on addition of cumate: 3.9 fold
[9]; BMAdE1/78-42, pAdcTA1(−nls)
  reduction in activation on addition of cumate: 22 fold
[10]; AdCR5-GFPq MOI 100, 200 μg/ml cumate
  GFP expression over mock infected cells after addition of cumate: 2 fold
[10]; AdCR5-GFPq MOI 300, 200 μg/ml cumate
  GFP expression over mock infected cells after addition of cumate: 4.5 fold
[10]; AdCR5-GFPq MOI 900, 200 μg/ml cumate
  GFP expression over mock infected cells after addition of cumate: 20.6 fold
[11]; pAdCR5LacZ + pAdcTA1(+nls), 200 μg/ml cumate
  reduction of activation on addition of cumate: 78%
[11]; pAdcTA1(−nls), 50 μg/ml cumate
  reduction of activation on addition of cumate: 86%
[11]; pAdcTA1(−nls), 100 μg/ml cumate
  reduction of activation on addition of cumate: 87%
[11]; pAdcTA1(−nls), 200 μg/ml cumate
  reduction of activation on addition of cumate: 89%
[12]
  induction of VSVg and syncitia formation on addition of cumate: induces the expression of VSVg
[13]; nls-containing repressor, pAdCMV5-Og-LacZ
  activity of the unrepressed state recovered on addition of cumate: 61%
[13]; nls-containing repressor, pAdCMV5-Os-LacZ
  relief of repression on addition of cumate: relieved the repression completely
[13]; pAdCymR, both pAdCMV5-Os-LacZ and pAdCMV5-Og-LacZ
  relief of repression on addition of cumate: relieved the repression totally

## CC(C)c1ccc(CO)cc1 [cumic alcohol]
[1]
  ability to act as inducer: none of these compounds could act as effective inducers

## O=C(O)c1cc2ccccc2[nH]1 [indole-2-carboxylic acid]
[1]
  ability to act as inducer: none of these compounds could act as effective inducers

## O=C(O)c1c[nH]c2ccccc12 [indole-3-carboxylic acid]
[1]
  ability to act as inducer: none of these compounds could act as effective inducers

## O=C([O-])c1ccccc1.[Na+] [sodium benzoate]
[1]
  ability to act as inducer: ineffective

## CC(C)c1ccc(C(=O)[O-])cc1.[Na+] [sodium salt of cumic acid]
[1]
  threshold of concentration giving a response, vs cumic acid: did not change appreciably
[14]
  water solubility: water-soluble

## Na^+ trimethyl cumate
[1]
  response compared with parental cumate: not as good as the parental cumate
[1]; 0.1 mM
  ability to act as inducer: effective inducer

## ethyltoluene
[1]
  ability to act as inducer: none of these compounds could act as effective inducers

## sodium toluate
[1]
  ability to act as inducer: ineffective
